{
  "source": "paper PMC6533572",
  "about": "“Elucidation of the Differences in Cinobufotalin’s Pharmacokinetics Between Normal and Diethylnitrosamine-Injured Rats: The Role of P-Glycoprotein” (Frontiers in Pharmacology, 2019)",
  "key": {"Water solubility": {"test": "Water solubility", "assay_type": "physicochemical", "details": "pH 7.0", "source_text": "Traditional Chinese Medicine (TMC) is widely used due to high efficiency and low toxicity in the treatment of various diseases. Toad venom (also known as Chan’su) is derived from the dried skin secretions of giant toads (Bufo gargarizans Cantor or Bufo melanostictus Suhneider) and is currently used in clinical practice, such as Cinobufacini injection, to treat HCC ([Kamano et al., 2002]; [Tang et al., 2008]; [Hu et al., 2011]; [Zhang et al., 2018]). Cinobufotalin (Figure 1A), a bufadienolide in chemical structure, is one of the major anti-tumor components of Cinobufacini injection ([Tao et al., 2010]; [Zhang et al., 2018]). […] This implied that cinobufotalin has shown excellent druggability."}, "P-glycoprotein (P-gp)": {"target": "T1, P-glycoprotein (P-gp) (Homo sapiens, UniProt P08183)", "T1 construct": "expressed in transfected cells; host or cells: MDCK II (Madin Darby canine kidney) cells stably transfected with the MDR1 gene", "T1 sequence (P08183 whole entry)": "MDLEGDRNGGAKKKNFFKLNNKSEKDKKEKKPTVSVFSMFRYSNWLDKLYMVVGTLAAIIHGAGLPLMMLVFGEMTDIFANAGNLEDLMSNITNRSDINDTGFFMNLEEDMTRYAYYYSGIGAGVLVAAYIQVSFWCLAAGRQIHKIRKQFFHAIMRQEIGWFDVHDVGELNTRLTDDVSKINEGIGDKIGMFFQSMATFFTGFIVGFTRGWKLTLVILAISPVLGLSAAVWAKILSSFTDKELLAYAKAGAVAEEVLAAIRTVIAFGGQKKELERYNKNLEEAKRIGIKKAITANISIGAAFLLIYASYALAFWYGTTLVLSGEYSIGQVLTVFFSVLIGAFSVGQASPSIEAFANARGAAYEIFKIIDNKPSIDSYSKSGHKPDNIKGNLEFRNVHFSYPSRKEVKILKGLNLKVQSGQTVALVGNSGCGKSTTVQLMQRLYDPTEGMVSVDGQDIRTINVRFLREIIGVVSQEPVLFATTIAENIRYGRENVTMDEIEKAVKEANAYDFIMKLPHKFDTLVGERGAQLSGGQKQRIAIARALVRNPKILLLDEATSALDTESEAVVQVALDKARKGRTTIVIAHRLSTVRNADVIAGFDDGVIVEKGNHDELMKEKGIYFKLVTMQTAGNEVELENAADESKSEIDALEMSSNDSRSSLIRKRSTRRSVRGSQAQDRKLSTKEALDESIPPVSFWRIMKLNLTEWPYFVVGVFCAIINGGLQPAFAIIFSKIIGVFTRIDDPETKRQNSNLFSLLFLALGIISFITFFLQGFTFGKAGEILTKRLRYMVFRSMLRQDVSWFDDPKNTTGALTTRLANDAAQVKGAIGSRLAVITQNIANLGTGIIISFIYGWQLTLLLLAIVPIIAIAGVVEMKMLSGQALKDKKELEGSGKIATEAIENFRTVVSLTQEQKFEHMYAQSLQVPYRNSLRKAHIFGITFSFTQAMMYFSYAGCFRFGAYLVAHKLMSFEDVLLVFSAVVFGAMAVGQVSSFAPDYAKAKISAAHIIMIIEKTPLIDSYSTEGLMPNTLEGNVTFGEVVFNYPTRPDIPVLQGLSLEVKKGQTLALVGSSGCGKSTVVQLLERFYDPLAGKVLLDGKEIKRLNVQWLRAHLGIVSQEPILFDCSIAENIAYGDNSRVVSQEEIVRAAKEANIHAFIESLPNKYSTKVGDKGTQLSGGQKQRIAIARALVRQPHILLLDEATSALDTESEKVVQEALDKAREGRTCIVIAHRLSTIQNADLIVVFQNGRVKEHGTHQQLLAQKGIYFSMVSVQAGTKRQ", "test": "Cellular uptake (intracellular accumulation) in MDCK-MDR1 cells", "assay_type": "in vitro ADME", "details": "2 h; for increase of intracellular accumulation of cinobufotalin by verapamil: MDCK-MDR1 cells, verapamil 100 μM", "protocol": "Madin Darby canine kidney (MDCK II) cells stably transfected with multidrug resistance 1 gene (MDCK-MDR1 cells) were conducted and used in cinobufotalin uptake studies. Wild type MDCK II or MDCK-MDR1 cells were seeded into six-well plates at the destiny of 2 × 10^5 cells/well and maintained at 37°C under 5% CO2 in DMEM with 10% FBS. The well-known P-gp inhibitor, verapamil (100 μM), was used as the positive control to evaluate the effect of P-gp on cinobufotalin uptake ([Bicker et al., 2017]).\nThe uptake experiment was performed when the cells reached 100% confluency. First, cells were washed three times using 37°C Hanks’ balanced salt solution (HBSS) buffer (pH = 7.2). Then, 2 mL HBSS (37°C, pH = 7.2) buffer containing cinobufotalin (5 and 20 μM) were added and incubated with cells in the absence or presence of potential P-gp inhibitors, verapamil (100 μM). After incubation for 2 h, the incubation medium was removed, and cells were washed three times using ice-cold HBSS buffer. Then 400 μL of ice-cold MeOH:H2O (1:1, v/v) were added into each well, the cells were collected and sonicated for 15 min in ice-cold water. The mixture was centrifuged at 4°C (12,000 g, 10 min), and the supernatant was subjected to UPLC-QTOF/MS for analyses."}, "[1]": {"test": "Bidirectional transport across MDCK II cell monolayers", "assay_type": "in vitro ADME, canine", "details": "dog; for efflux ratio at 120 min, 20 μM: read-out: ER", "protocol": "MDCK II and MDCK-MDR1 cells were seeded into 12-well Transwell polycarbonate membrane inserts (12 mm diameter inserts, 0.4 μm pore size, Corning Costar) at a density of 6 × 10^5 cells/well. Cells were cultured at 37°C under 5% CO2 in DMEM with 10% FBS, and the culture medium was refreshed every other day. Experiments were conducted when the tight junctional cell monolayer formed. First, the cells were washed three times using 37°C preheated HBSS buffer (pH = 7.4) and preincubated in a shaking incubator for 30 min at 37°C. Then the transport studies were initiated after the blank HBSS buffer and dosing solution (HBSS buffer containing cinobufotalin at a final concentration of 20 μM) were added to the receiver compartment and donor compartment, respectively. Verapamil, if used, was added to both compartment during the incubated period. The volumes of the apical side (AP) and basolateral side (BL) were 0.5 and 1.5 mL, respectively. Samples (100 μL) were taken from the receiver compartment every 30 min during the incubation period of 120 min, and then replaced with the same volume of […]. At the end of the incubated period, aliquots of 100 μL were withdrawn from the donor compartment to calculated mass balance. All samples were mixed with 50 μL acetonitrile and centrifuged at 4°C (12,000 g, 10 min. The supernatant was subjected to UPLC-QTOF/MS for analyses.\nThe apparent permeability (cm/s) from apical-to-basal (Papp,AP-BL) and basal-to-apical (Papp,BL-AP) were calculated according to the following Equation (4), where dQ/dt is the rate of drug permeation (nmol/s), A is the area of polycarbonate membrane (A = 1.12 cm^2), and C0 is the initial concentration of cinobufotalin in the donor compartment.\nThe efflux ratio (ER) and net flux ratio were calculated according to Equations (5) and (6) as described in our previous research ([Sun et al., 2017]).\n(5) ER=Papp, BL−AP/Papp, AP−BL"}, "HepG2 cells": {"system": "HepG2 cells", "test": "Cell viability CCK-8 assay, HepG2 cells", "assay_type": "cell-based", "details": "Homo sapiens, 40 nM, 60 nM and 80 nM, 24 h, read-out: inhibition of HepG2 cells growth (CCK-8)", "protocol": "(§1) Hepatocellular cancer cells (HepG2 and Huh-7) were purchased from the cell bank of the Chinese Academy of Science (Shanghai, China). These cells were cultured in Dulbecco’s modified Eagle’s medium (DMEM) containing 10% fetal bovine serum (FBS), penicillin (100 units/mL) and streptomycin (100 units/mL) in a humidified atmosphere with 5% CO2 at 37 °C.\n(§2) Furthermore, the effect of cinobufotalin at 40, 60, 80 nM on hepatocellular cancer cells (HepG2 and Huh-7 cells) viability was conducted using Cell Counting Kit - 8 (CCK-8) assay (Sigma-Aldrich, St Louis, MO). In brief, cells were seeded into 96-well plates at 5 × 10^3 cells/well and cultured for 24 h in DMEM medium as described in 1.1 section. Then various concentrations of cinobufotalin (40, 60, 80 nM) were added into cells. After 24 h treatment, 10 μL of CCK-8 solution was added into every well of the plate. The plate was incubated in the incubator for other 4 h, and then the absorbance was measured at 450 nm using a microplate reader (Thermo Scientific, Rockford, IL). The cell viability was calculated by the formula: cell viability (100%) = (OD value of the treated wells - OD value of the blank control wells) / (OD value of the negative control wells - OD value of the blank control wells)."}, "Huh-7 cells": {"system": "Huh-7 cells", "test": "Cell viability CCK-8 assay, Huh-7 cells", "assay_type": "cell-based", "details": "Homo sapiens, 40 nM, 60 nM and 80 nM, 24 h, read-out: inhibition of Huh-7 cells growth (CCK-8)", "protocol": "as §1, §2"}, "[2]": {"details": "pH 7.4, with verapamil (concentration not stated), in both compartments, cinobufotalin 20 μM, with verapamil"}},
  "note": "Read-outs that look alike come from different tables or passages of the source.",
  "data": [
    {"smiles": "CC(=O)O[C@H]1[C@H]2O[C@]23[C@@H]2CC[C@]4(O)C[C@@H](O)CC[C@]4(C)[C@H]2CC[C@]3(C)[C@H]1c1ccc(=O)oc1", "note": "[Cinobufotalin]", "values": [
      {"measurement": "solubility", "setting": "Water solubility", "value": 117, "unit": "µg/mL"},
      {"measurement": "intracellular amount of cinobufotalin in MDCK II cells compared with MDCK-MDR1 cells", "setting": "P-glycoprotein (P-gp); 5 and 20 μM", "value": "obviously higher"},
      {"measurement": "increase of intracellular accumulation of cinobufotalin by verapamil", "setting": "P-glycoprotein (P-gp); cinobufotalin 5 μM", "value": 4.0, "unit": "fold"},
      {"measurement": "increase of intracellular accumulation of cinobufotalin by verapamil", "setting": "P-glycoprotein (P-gp); cinobufotalin 20 μM", "value": 3.5, "unit": "fold"},
      {"measurement": "Papp A→B at 120 min, 20 μM", "setting": "[1]; pH 7.4, cinobufotalin 20 μM", "value": "33.8 ± 1.1", "unit": "×10⁻⁶ cm/s"},
      {"measurement": "Papp B→A at 120 min, 20 μM", "setting": "[1]; pH 7.4, cinobufotalin 20 μM", "value": "35.9 ± 1.3", "unit": "×10⁻⁶ cm/s"},
      {"measurement": "efflux ratio at 120 min, 20 μM", "setting": "[1]; pH 7.4, cinobufotalin 20 μM", "value": 1.1},
      {"measurement": "Papp A→B at 120 min, 20 μM", "setting": "[1]; [2]", "value": "23.4 ± 2.2", "unit": "×10⁻⁶ cm/s"},
      {"measurement": "Papp B→A at 120 min, 20 μM", "setting": "[1]; [2]", "value": "24.8 ± 2.7", "unit": "×10⁻⁶ cm/s"},
      {"measurement": "efflux ratio at 120 min, 20 μM", "setting": "[1]; [2]", "value": 1.1},
      {"measurement": "inhibition at 0.04 µM", "setting": "HepG2 cells", "value": "< 15", "unit": "%"},
      {"measurement": "inhibition at 0.04 µM", "setting": "Huh-7 cells", "value": "< 15", "unit": "%"}
    ]}
  ]
}
